In patent US20260085067A1, “CYCLIC SULFONAMIDE RIBONUCLEOTIDE REDUCTASE (RNR) INHIBITORS AND USES THEREOF” (Boundless Bio, Inc., priority 2022, published 2026):

How the values were obtained:
[1] = test system: pCHK1 (S345) in Colo320 DM cells; assay: Alphalisa assay, detection of pCHK1 (S345) in Colo320 DM cells; assay type: cell-based, human; conditions: Homo sapiens, COLO 320DM, compound overnight (approximately 16 hours)
Description: Colo320 DM cells (ATCC #CCL-220, derived from human colorectal adenocarcinoma, Dukes' type C) were seeded on a […], cell culture treated assay plate at a density of 50,000 cells/well in 200 μL of RPMI-1640 media supplemented with 10% Fetal Bovine Serum and incubated at 37° C. overnight. The following day, test compound dilutions were added directly to the plated cells by a Tecan digital dispenser to a final DMSO concentration of <0.5%. and incubated at 37° C. overnight (approximately 16 hours). The following day all cell culture media was removed from the cells. 75 μL of 1×AlphaLisa lysis buffer was added to each well and plates were agitated on a shaker for 30 minutes at room temperature. The lysis of cells and detection of pCHK1 (S345) were performed with reagents contained within the AlphaLisa Sure Fire assay kit (Perkin Elmer #ALSU-PCHK1-A) according to the manufacturer's instructions. 10 μL of each lysate was then transferred to a white, 384-well assay plate (Perkin Elmer #6008280). 5 μL of Acceptor mix was then added to each well of lysate in the white, 384-well assay plate and incubated in the dark at room temperature for 60 minutes. 5 μL of Donor mix was then added to each well of the white, 384-well assay plate in subdued light and incubated at room temperature for 60 minutes. Plates were read on an Alpha Technology-compatible plate reader using standard AlphaLisa settings.

RNR (RNR1:RNR2 1:1) = target: T1, RNR (RNR1:RNR2 1:1) (Homo sapiens, UniProt P23921); assay: RNR enzyme activity, rapid-fire mass spectrometry (RF/MS) assay; assay type: biochemical; conditions: [RNR] 50 nM, 1:1 RNR1:RNR2; CDP 5 μM; ATP 1 mM; 37° C., 45 min; compounds screened up to 50 μM
T1 sequence (P23921 1-792): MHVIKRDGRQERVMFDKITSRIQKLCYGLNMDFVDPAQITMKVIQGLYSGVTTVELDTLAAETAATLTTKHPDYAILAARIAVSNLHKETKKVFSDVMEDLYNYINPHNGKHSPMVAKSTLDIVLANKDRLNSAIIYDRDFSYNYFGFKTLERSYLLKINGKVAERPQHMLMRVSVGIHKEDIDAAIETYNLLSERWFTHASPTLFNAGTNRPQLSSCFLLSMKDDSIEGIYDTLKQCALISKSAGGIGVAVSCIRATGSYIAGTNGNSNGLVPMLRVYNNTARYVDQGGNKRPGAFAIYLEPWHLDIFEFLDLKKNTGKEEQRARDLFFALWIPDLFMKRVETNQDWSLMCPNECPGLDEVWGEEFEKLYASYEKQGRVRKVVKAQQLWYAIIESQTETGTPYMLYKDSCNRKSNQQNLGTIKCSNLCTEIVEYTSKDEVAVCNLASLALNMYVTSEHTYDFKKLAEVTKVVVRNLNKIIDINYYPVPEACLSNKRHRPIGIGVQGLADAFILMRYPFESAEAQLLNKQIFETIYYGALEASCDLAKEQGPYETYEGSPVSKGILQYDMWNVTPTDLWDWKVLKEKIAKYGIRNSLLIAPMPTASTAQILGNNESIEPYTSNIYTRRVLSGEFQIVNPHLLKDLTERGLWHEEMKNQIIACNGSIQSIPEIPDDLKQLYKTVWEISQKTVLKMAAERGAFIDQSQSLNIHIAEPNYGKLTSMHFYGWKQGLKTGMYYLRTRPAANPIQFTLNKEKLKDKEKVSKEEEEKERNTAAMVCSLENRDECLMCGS
Description: A rapid-fire mass spectrometry (RF/MS) assay was used to assess RNR enzyme activity using a 384 well plate and a robotic platform.
The plate layout included two validated reference compounds (Triapine (3-AP) and Hydroxyurea (HU)): • A dose response in duplicate; top concentration: 5 μM (3-AP) and 250 μM (HU), semi-log dilutions. • Spike wells in triplicate randomly spotted at four concentrations: • 250 μM, 100 μM, 30 μM and 2 μM for HU • 5 μM, 2 μM, 0.6 μM and 0.04 μM for 3-AP
First, the multidrop pipes were saturated for 30 minutes with enzymatic solution. Then 30 μL of Stop solution was distributed in column 24. Next, 15 μL of enzyme was distributed in column 1 to 24. Next, a pre-incubation step of 15 minutes at room temperature occurred, followed by distribution of 15 μL of substrate solution (column 1 to 24). Next, the plate was incubated for 45 minutes at 37° C. 30 μL of Stop solution was then distributed to columns 1 to 23.
The final parameters for the enzyme reactions were: • Incubation: 37° C., 45 min • [CDP]: 5 μM; [ATP]: 1 mM; [NADPH]: No • [RNR]final: 50 nM with 1:1 (RNR1:RNR2) ratio • Final volume: 30 μL • Stop solution: 6% HCOOH in water

IC50 [1] [µM] | IC50 (RNR (RNR1:RNR2 1:1)) [nM] | Structure (SMILES)
≤ 1 | < 20 | Cc1ccc(F)c([C@@H](C)[C@@H](c2n[nH]c(=O)o2)N2CN(C)c3cc(Cl)cc(C(N)=O)c3S2(=O)=O)c1C [Example 22, 6-chloro-2-((1S,2R)-2-(6-fluoro-2,3-dimethylphenyl)-1-(5-oxo-4,5-dihydro-1,3,4-oxadiazol-2-yl)propyl)-4-methyl-3,4-dihydro-2H-benzo[e][1,2,4]thiadiazine-8-carboxamide 1,1-dioxide]
1 to 5 | < 20 | Cc1ccc(F)c([C@@H](C)[C@@H](c2n[nH]c(=O)o2)N2CCOc3cc(Cl)cc(C(N)=O)c3S2(=O)=O)c1C [Example 23, 7-chloro-2-((1S,2R)-2-(6-fluoro-2,3-dimethylphenyl)-1-(5-oxo-4,5-dihydro-1,3,4-oxadiazol-2-yl)propyl)-3,4-dihydro-2H-benzo[b][1,4,5]oxathiazepine-9-carboxamide 1,1-dioxide]
10 to 50 | 20 to 100 | Cc1ccc(F)c([C@@H](C)[C@@H](c2n[nH]c(=O)o2)N2CN(C)c3cc(Cl)cc(C)c3S2(=O)=O)c1C [Example 26, 5-((1S,2R)-1-(6-chloro-4,8-dimethyl-1,1-dioxido-3,4-dihydro-2H-benzo[e][1,2,4]thiadiazin-2-yl)-2-(6-fluoro-2,3-dimethylphenyl)propyl)-1,3,4-oxadiazol-2 (3H)-one]
1 to 5 | < 20 | Cc1ccc(F)c([C@@H](C)[C@@H](c2n[nH]c(=O)o2)N2CN(CCCN(C)C)c3cc(Cl)ccc3S2(=O)=O)c1C [Example 34, 5-((1S,2R)-1-(6-chloro-4-(3-(dimethylamino)propyl)-1,1-dioxido-3,4-dihydro-2H-benzo[e][1,2,4]thiadiazin-2-yl)-2-(6-fluoro-2,3-dimethylphenyl)propyl)-1,3,4-oxadiazol-2 (3H)-one]
> 50 | 1000 to 10000 | Cc1ccc(F)c([C@@H](C)[C@@H](c2n[nH]c(=O)o2)N2CN(C)c3cc(Cl)cc(C(=O)N(C)C)c3S2(=O)=O)c1C [Example 37, 6-chloro-2-((1S,2R)-2-(6-fluoro-2,3-dimethylphenyl)-1-(5-oxo-4,5-dihydro-1,3,4-oxadiazol-2-yl)propyl)-N,N,4-trimethyl-3,4-dihydro-2H-benzo[e][1,2,4]thiadiazine-8-carboxamide 1,1-dioxide]

Continued, molecule first:

Structure (SMILES) | IC50 [1] [µM] | IC50 (RNR (RNR1:RNR2 1:1)) [nM]
COC(=O)c1cc(Cl)cc2c1S(=O)(=O)N([C@H](c1n[nH]c(=O)o1)[C@H](C)c1c(F)ccc(C)c1C)CN2C [Example 19, methyl 6-chloro-2-((1S,2R)-2-(6-fluoro-2,3-dimethylphenyl)-1-(5-oxo-4,5-dihydro-1,3,4-oxadiazol-2-yl)propyl)-4-methyl-3,4-dihydro-2H-benzo[e][1,2,4]thiadiazine-8-carboxylate 1,1-dioxide] | 1 to 5 | 20 to 100
Cc1ccc(F)c([C@@H](C)[C@@H](c2n[nH]c(=O)o2)N2C3CCCN3c3cc(Cl)ccc3S2(=O)=O)c1C (stereo partly drawn) [Example 20, 5-((1S,2R)-1-(8-chloro-5,5-dioxido-1,2,3,3a-tetrahydro-4H-benzo[e]pyrrolo[2,1-c][1,2,4]thiadiazin-4-yl)-2-(6-fluoro-2,3-dimethylphenyl)propyl)-1,3,4-oxadiazol-2 (3H)-one] | 1 to 5 | < 20
Cc1ccc(F)c([C@@H](C)[C@@H](c2n[nH]c(=O)o2)N2CCNc3cc(Cl)ccc3S2(=O)=O)c1C [Example 21, 5-((1S,2R)-1-(7-chloro-1,1-dioxido-4,5-dihydrobenzo[f][1,2,5]thiadiazepin-2 (3H)-yl)-2-(6-fluoro-2,3-dimethylphenyl)propyl)-1,3,4-oxadiazol-2 (3H)-one] | 1 to 5 | 20 to 100
Cc1ccc(F)c([C@@H](C)[C@@H](c2n[nH]c(=O)o2)N2CCOc3cc(Cl)cc(C)c3S2(=O)=O)c1C [Example 24, 5-((1S,2R)-1-(7-chloro-9-methyl-1,1-dioxido-3,4-dihydro-2H-benzo[b][1,4,5]oxathiazepin-2-yl)-2-(6-fluoro-2,3-dimethylphenyl)propyl)-1,3,4-oxadiazol-2 (3H)-one] | > 50 | 100 to 1000
CC(=O)c1c(Cl)ccc2c1OCCN([C@H](c1n[nH]c(=O)o1)[C@H](C)c1c(F)ccc(C)c1C)S2(=O)=O [Example 25, 5-((1S,2R)-1-(6-acetyl-7-chloro-1,1-dioxido-3,4-dihydro-2H-benzo[b][1,4,5]oxathiazepin-2-yl)-2-(6-fluoro-2,3-dimethylphenyl)propyl)-1,3,4-oxadiazol-2 (3H)-one] | 1 to 5 | < 20
Cc1ccc(F)c([C@@H](C)[C@@H](c2n[nH]c(=O)o2)N2CCOc3cc(Cl)ncc3S2(=O)=O)c1C [Example 27, 5-((1S,2R)-1-(7-chloro-1,1-dioxido-3,4-dihydro-2H-pyrido[4,3-b][1,4,5]oxathiazepin-2-yl)-2-(6-fluoro-2,3-dimethylphenyl)propyl)-1,3,4-oxadiazol-2 (3H)-one] | 10 to 50 | 1000 to 10000
COCCCN1CN([C@H](c2n[nH]c(=O)o2)[C@H](C)c2c(F)ccc(C)c2C)S(=O)(=O)c2ccc(Cl)cc21 [Example 30, 5-((1S,2R)-1-(6-chloro-4-(3-methoxypropyl)-1,1-dioxido-3,4-dihydro-2H-benzo[e][1,2,4]thiadiazin-2-yl)-2-(6-fluoro-2,3-dimethylphenyl)propyl)-1,3,4-oxadiazol-2 (3H)-one] | ≤ 1 | < 20
Cc1ccc(F)c([C@@H](C)[C@@H](c2n[nH]c(=O)o2)N2CN(C)c3c(ccc(Cl)c3C)S2(=O)=O)c1C [Example 32, 5-((1S,2R)-1-(6-chloro-4,5-dimethyl-1,1-dioxido-3,4-dihydro-2H-benzo[e][1,2,4]thiadiazin-2-yl)-2-(6-fluoro-2,3-dimethylphenyl)propyl)-1,3,4-oxadiazol-2 (3H)-one] | 10 to 50 | 20 to 100
Cc1ccc(F)c([C@@H](C)[C@@H](c2n[nH]c(=O)o2)N2CN(C3CCOCC3)c3cc(Cl)ccc3S2(=O)=O)c1C [Example 33, 5-((1S,2R)-1-(6-chloro-1,1-dioxido-4-(tetrahydro-2H-pyran-4-yl)-3,4-dihydro-2H-benzo[e][1,2,4]thiadiazin-2-yl)-2-(6-fluoro-2,3-dimethylphenyl)propyl)-1,3,4-oxadiazol-2 (3H)-one] | ≤ 1 | < 20
Cc1ccc(F)c([C@@H](C)[C@@H](c2n[nH]c(=O)o2)N2CN(C)C(=O)c3cc(Cl)ccc3S2(=O)=O)c1C [Example 35, 5-((1S,2R)-1-(7-chloro-4-methyl-1,1-dioxido-5-oxo-4,5-dihydrobenzo[f][1,2,4]thiadiazepin-2 (3H)-yl)-2-(6-fluoro-2,3-dimethylphenyl)propyl)-1,3,4-oxadiazol-2 (3H)-one] | 10 to 50 | 20 to 100
Cc1ccc(F)c([C@@H](C)[C@@H](c2n[nH]c(=O)o2)N2CCOc3c(ccc(Cl)c3C)S2(=O)=O)c1C [Example 36, 5-((1S,2R)-1-(7-chloro-6-methyl-1,1-dioxido-3,4-dihydro-2H-benzo[b][1,4,5]oxathiazepin-2-yl)-2-(6-fluoro-2,3-dimethylphenyl)propyl)-1,3,4-oxadiazol-2 (3H)-one] | 1 to 5 | < 20
